Read-outs that look alike come from different tables or passages of the source.
Legend:
[1] = Blood:plasma distribution ratio; format: in vitro ADME; settings: blood and plasma
Solubility in water = format: physicochemical

Row | SMILES | blood plasma ratio [1] | Solubility in water (Solubility in water; dihydrate) | Solubility in water (Solubility in water; listed as compound of formula (II), dihydrate) | Solubility in water (Solubility in water)
1 | C[C@H]1CN(C[C@H](Cc2ccccc2)C(=O)NCC(=O)O)CC[C@@]1(C)c1cccc(O)c1 [Alvimopan, [[2(S)-[[4(R)-(3-hydroxyphenyl)-3(R),4-dimethyl-1-piperidinyl]methyl]-1-oxo-3-phenylpropyl]amino]acetic acid dihydrate] | 0.68 | extremely low solubility in water | low solubility in water except at low or high pH conditions | 
2 | C[C@H]1CN(C[C@H](Cc2ccccc2)C(=O)O)CC[C@@]1(C)c1cccc(O)c1.O [active metabolite, (αS,3R,4R)-4-(3-hydroxyphenyl)-3,4-dimethyl-α-(phenylmethyl)-1-piperidinepropanoic acid monohydrate] |  |  |  | extremely low solubility in water

Source: patent publication US8598207B2, “Compositions containing opioid antagonists” (Adolor Corporation, priority 2004, dated 2013)
